Experimental findings from patent US20170210778A1, “NOVEL COMPOUNDS” (The Provost, Fellows, Foundation Scholars, and the other …, priority 2014, published 2017) are described below.

Assay [1] has as its target T1, murine NOD1 (Mus musculus, UniProt Q8BHB0).
T1 construct: expressed in transfected cells; host or cells: HEK293
T1 sequence (Q8BHB0 1-953): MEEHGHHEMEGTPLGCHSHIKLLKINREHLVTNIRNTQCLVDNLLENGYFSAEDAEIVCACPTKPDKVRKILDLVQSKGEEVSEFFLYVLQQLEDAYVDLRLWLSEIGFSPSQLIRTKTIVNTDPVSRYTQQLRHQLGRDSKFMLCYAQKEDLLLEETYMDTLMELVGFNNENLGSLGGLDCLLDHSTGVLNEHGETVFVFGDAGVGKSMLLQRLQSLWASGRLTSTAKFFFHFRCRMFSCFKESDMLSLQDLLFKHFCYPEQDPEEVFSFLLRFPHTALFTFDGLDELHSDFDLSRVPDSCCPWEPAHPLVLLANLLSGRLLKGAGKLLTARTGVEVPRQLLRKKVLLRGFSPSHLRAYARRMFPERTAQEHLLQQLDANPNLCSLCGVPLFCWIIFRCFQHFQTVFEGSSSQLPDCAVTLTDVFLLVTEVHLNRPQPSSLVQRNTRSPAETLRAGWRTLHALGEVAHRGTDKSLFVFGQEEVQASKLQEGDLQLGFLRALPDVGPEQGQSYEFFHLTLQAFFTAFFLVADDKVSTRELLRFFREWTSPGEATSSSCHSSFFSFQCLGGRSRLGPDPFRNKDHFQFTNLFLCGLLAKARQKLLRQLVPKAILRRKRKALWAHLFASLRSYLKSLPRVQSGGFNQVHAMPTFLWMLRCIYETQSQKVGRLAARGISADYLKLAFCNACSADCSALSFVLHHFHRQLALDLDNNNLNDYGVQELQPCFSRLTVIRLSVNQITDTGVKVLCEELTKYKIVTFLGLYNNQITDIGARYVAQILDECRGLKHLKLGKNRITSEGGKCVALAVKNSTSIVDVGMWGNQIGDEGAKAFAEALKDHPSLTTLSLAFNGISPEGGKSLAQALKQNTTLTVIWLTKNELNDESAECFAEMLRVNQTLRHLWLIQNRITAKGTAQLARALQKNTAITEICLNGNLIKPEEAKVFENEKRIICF
Nature of the assay: NOD1 functional agonist assay, 293mNOD1-SEAP reporter cells. Format: cell-based. Conditions: 293mNOD1 cells, OD above 3*O.D of negative control. An excerpt: (§1) HEK293 cells were stably transfected with plasmid for the overexpression of the NOD1 genes and a reporter plasmid expressing a secreted embryonic alkaline phosphatase (SEAP) gene under the control of a promoter inducible by the transcription factors NF-κB and AP-1. These cells are referred herein as 293hNOD1-SEAP (for cells overexpressing the human NOD1 gene) and 293mNOD1-SEAP (for cells overexpressing the murine NOD1 gene). Upon NOD1 stimulation, these cells induce the activation of NF-κB and AP-1 and subsequently the secretion of SEAP. The reporter protein is easily detectable and measurable when using QUANTI-Blue™ (InvivoGen, San Diego, Calif.), a medium that turns purple/blue in the presence of SEAP.
(§2) The biological activity of the compounds of the invention tested using 293hNOD1 and 293mNOD1 cells. SEAP expression was measured using the commercially available SEAP detection kit (HEK-Blue™ Detection, InvivoGen). The SEAP activity in cells was quantified using the microplate reader (FLUOStar OPTIMA, BMG laboratories), the absorbance values were read using filter with excitation at 620 nm and emission at 655 nm. The results provided in Table 2 were expressed as the concentration were a significant mean optical density (OD) can be observed (above 3*O.D of negative control). As a positive control, the NOD1 pathway was stimulated with commercially available iE-DAP (InvivoGen) and C12-iE-DAP (an acylated derivative of DAP; InvivoGen). As a negative control endotoxin-free water was used. Additionally, 293 cells expressing the SEAP gene but not the NOD1 gene were used as a control.

Assay [2] concerns the target T2, human NOD1 (Homo sapiens, UniProt Q9Y239).
T2 construct: expressed in transfected cells; host or cells: HEK293
T2 sequence (Q9Y239 1-953): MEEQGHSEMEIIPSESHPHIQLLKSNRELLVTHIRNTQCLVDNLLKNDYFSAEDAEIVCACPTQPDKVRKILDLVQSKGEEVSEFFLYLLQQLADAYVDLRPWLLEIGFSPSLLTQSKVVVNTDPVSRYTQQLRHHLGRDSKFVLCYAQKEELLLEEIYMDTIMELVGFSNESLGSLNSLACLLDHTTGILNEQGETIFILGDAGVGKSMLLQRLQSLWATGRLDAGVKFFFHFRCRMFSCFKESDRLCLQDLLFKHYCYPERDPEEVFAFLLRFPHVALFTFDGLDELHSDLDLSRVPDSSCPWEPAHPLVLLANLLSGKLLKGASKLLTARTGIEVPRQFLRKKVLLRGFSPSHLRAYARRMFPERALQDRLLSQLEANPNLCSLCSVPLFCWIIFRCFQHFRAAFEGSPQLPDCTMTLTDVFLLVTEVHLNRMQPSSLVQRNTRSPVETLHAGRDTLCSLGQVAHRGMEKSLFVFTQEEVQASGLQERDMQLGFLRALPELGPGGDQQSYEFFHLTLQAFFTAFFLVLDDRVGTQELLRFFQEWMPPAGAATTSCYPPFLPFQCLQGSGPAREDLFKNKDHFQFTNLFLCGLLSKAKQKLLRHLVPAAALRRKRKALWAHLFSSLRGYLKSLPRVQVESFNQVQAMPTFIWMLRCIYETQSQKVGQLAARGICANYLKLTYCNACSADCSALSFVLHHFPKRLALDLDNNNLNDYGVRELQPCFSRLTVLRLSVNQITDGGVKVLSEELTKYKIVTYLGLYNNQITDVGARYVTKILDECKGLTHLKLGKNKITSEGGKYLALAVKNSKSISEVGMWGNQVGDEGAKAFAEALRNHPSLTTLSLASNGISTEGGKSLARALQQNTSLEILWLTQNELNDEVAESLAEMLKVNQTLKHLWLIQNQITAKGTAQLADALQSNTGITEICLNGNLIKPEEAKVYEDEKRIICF
Nature of the assay: NOD1 functional agonist assay, 293hNOD1-SEAP reporter cells. Type of assay: cell-based. The settings on record: 293hNOD1 cells, OD above 3*O.D of negative control.
Text: as §1, §2

Molecules are shown by their SMILES.

As for `CCCCCCC(=O)N[C@@H](C)C(=O)N[C@H](CCC(=O)N[C@H](CSC[C@H](N)C(=O)O)C(=O)NCC(=O)O)C(=O)O` [Example 27, N^5-((S)-3-(((R)-2-amino-2-carboxyethyl)thio)-1-((carboxymethyl)amino)-1-oxopropan-2-yl)-N^2-(heptanoyl-L-alanyl)-D-glutamine], the “mNod1: concentration where a significant mean optical density (OD) can be observed” value in assay [1] was determined as 1 µg/mL. The “hNod1: concentration where a significant mean optical density (OD) can be observed” value in assay [2] turned out to be 1 µg/mL.

Take `N[C@H](CCC(=O)N[C@@H](COC[C@@H](N)C(=O)O)C(=O)O)C(=O)O` [Example 34, N^5-((S)-2-((R)-2-amino-2-carboxyethoxy)-1-carboxyethyl)-D-glutamine]: the “mNod1: concentration where a significant mean optical density (OD) can be observed” value in assay [1] was 10 µg/mL. Besides, the “hNod1: concentration where a significant mean optical density (OD) can be observed” value in assay [2] was determined as 10 µg/mL.

`CCCCCCCCCCCCCC(=O)N[C@H](CCC(=O)N[C@H](CSC[C@H](N)C(=O)O)C(=O)O)C(=O)O` [Example 4, N^5-((S)-2-(((R)-2-amino-2-carboxyethyl)thio)-1-carboxyethyl)-N^2-tetradecanoyl-D-glutamine]: the “mNod1: concentration where a significant mean optical density (OD) can be observed” value in assay [1] stood at 0.001 µg/mL. The “hNod1: concentration where a significant mean optical density (OD) can be observed” value in assay [2] amounted to 0.0001 µg/mL.

As for `N[C@H](CCC(=O)N[C@H](CSC[C@H](N)C(=O)O)C(=O)O)C(=O)O` [Example 1, N^5-((S)-2-(((R)-2-amino-2-carboxyethyl)thio)-1-carboxyethyl)-D-glutamine], the “mNod1: concentration where a significant mean optical density (OD) can be observed” value in assay [1] was 10 µg/mL. Besides, the “hNod1: concentration where a significant mean optical density (OD) can be observed” value in assay [2] worked out at 1 µg/mL.

On to `CCCCCCCCCCCC(=O)N[C@@H](C)C(=O)N[C@H](CCC(=O)N[C@H](CSC[C@H](N)C(=O)O)C(=O)NCC(=O)O)C(=O)O` [Example 28, N^5-((S)-3-(((R)-2-amino-2-carboxyethyl)thio)-1-((carboxymethyl)amino)-1-oxopropan-2-yl)-N^2-(dodecanoyl-L-alanyl)-D-glutamine], for which the “mNod1: concentration where a significant mean optical density (OD) can be observed” value in assay [1] worked out at 0.001 µg/mL. The “hNod1: concentration where a significant mean optical density (OD) can be observed” value in assay [2] was 0.001 µg/mL.

Take `CCCCCCCCCCCC(=O)N[C@@H](C)C(=O)N[C@H](CCC(=O)N[C@H](CSC[C@H](N)C(=O)O)C(=O)N[C@H](C)C(=O)O)C(=O)O` [Example 20, N^5-((S)-3-(((R)-2-amino-2-carboxyethyl)thio)-1-(((R)-1-carboxyethyl)amino)-1-oxopropan-2-yl)-N^2-(dodecanoyl-L-alanyl)-D-glutamine]: in assay [1], the “mNod1: concentration where a significant mean optical density (OD) can be observed” value came out at 0.01 µg/mL. For the same compound, the “hNod1: concentration where a significant mean optical density (OD) can be observed” value in assay [2] came out at 0.01 µg/mL.

Consider `CCCCCCCCCCCCCC(=O)N[C@@H](Cc1ccccc1)C(=O)N[C@H](CCC(=O)N[C@H](CSC[C@H](N)C(=O)O)C(=O)O)C(=O)O` [Example 13, N^5-((S)-2-(((R)-2-amino-2-carboxyethyl)thio)-1-carboxyethyl)-N^2-(tetradecanoyl-L-phenylalanyl)-D-glutamine], for which, in assay [1], the “mNod1: concentration where a significant mean optical density (OD) can be observed” value is 1 µg/mL. Further, the “hNod1: concentration where a significant mean optical density (OD) can be observed” value in assay [2] was found to be 0.001 µg/mL.

Consider `CCCCCCCCCCCC(=O)N[C@H](CCC(=O)N[C@H](CSC[C@H](N)C(=O)O)C(=O)N[C@H](C)C(=O)O)C(=O)O` [Example 16, N^5-((S)-3-(((R)-2-amino-2-carboxyethyl)thio)-1-(((R)-1-carboxyethyl)amino)-1-oxopropan-2-yl)-N^2-dodecanoyl-D-glutamine], for which the “mNod1: concentration where a significant mean optical density (OD) can be observed” value in assay [1] was 0.001 µg/mL. For the same compound, the “hNod1: concentration where a significant mean optical density (OD) can be observed” value in assay [2] was 0.01 µg/mL.

Turning to `C[C@H](N)C(=O)N[C@H](CCC(=O)N[C@H](CSC[C@H](N)C(=O)O)C(=O)O)C(=O)O` [Example 5, N^2-(L-alanyl)-N^5-((S)-2-(((R)-2-amino-2-carboxyethyl)thio)-1-carboxyethyl)-D-glutamine], the “mNod1: concentration where a significant mean optical density (OD) can be observed” value in assay [1] stood at 1 µg/mL. In addition, the “hNod1: concentration where a significant mean optical density (OD) can be observed” value in assay [2] amounted to 1 µg/mL.

Take `CCCCCCCCCCCCCC(=O)N[C@H](CCC(=O)N[C@@H](COC[C@@H](N)C(=O)O)C(=O)O)C(=O)O` [Example 35, N^5-((S)-2-((R)-2-amino-2-carboxyethoxy)-1-carboxyethyl)-N^2-tetradecanoyl-D-glutamine]: the “mNod1: concentration where a significant mean optical density (OD) can be observed” value in assay [1] is 0.01 µg/mL. Further, in assay [2], the “hNod1: concentration where a significant mean optical density (OD) can be observed” value is 0.01 µg/mL.

Turning to `CCCCCCCCCCCCCC(=O)N[C@H](CCC(=O)N[C@H](CSC[C@H](N)C(=O)O)C(=O)NCC(=O)O)C(=O)O` [Example 25, N^5-((S)-3-(((R)-2-amino-2-carboxyethyl)thio)-1-((carboxymethyl)amino)-1-oxopropan-2-yl)-N^2-tetradecanoyl-D-glutamine], in assay [1], the “mNod1: concentration where a significant mean optical density (OD) can be observed” value came to 0.01 µg/mL. In addition, the “hNod1: concentration where a significant mean optical density (OD) can be observed” value in assay [2] turned out to be 0.01 µg/mL.

As for `CCCCCCCCCCCCCC(=O)N[C@@H](C)C(=O)N[C@H](CCC(=O)N[C@H](CSC[C@H](N)C(=O)O)C(=O)N[C@H](C)C(=O)O)C(=O)O` [Example 21, N^5-((S)-3-(((R)-2-amino-2-carboxyethyl)thio)-1-(((R)-1-carboxyethyl)amino)-1-oxopropan-2-yl)-N^2-(tetradecanoyl-L-alanyl)-D-glutamine], the “mNod1: concentration where a significant mean optical density (OD) can be observed” value in assay [1] was 0.001 µg/mL. Also, the “hNod1: concentration where a significant mean optical density (OD) can be observed” value in assay [2] was determined as 0.01 µg/mL.

On to `C[C@H](N)C(=O)N[C@H](CCC(=O)N[C@@H](COC[C@@H](N)C(=O)O)C(=O)O)C(=O)O` [Example 36, N^2-(L-alanyl)-N^5-((S)-2-((R)-2-amino-2-carboxyethoxy)-1-carboxyethyl)-D-glutamine], for which, in assay [1], the “mNod1: concentration where a significant mean optical density (OD) can be observed” value worked out at 100 µg/mL. Besides, the “hNod1: concentration where a significant mean optical density (OD) can be observed” value in assay [2] was 100 µg/mL.
